Reference: patent US20240228633A9, “METHODS OF TREATING CANCER WITH PDGFR ALPHA INHIBITORS” (Eli Lilly and Company, priority 2021, published 2024)
Read-outs that look alike come from different tables or passages of the source.

How the values were obtained:
LMS = experiment: Median overall survival in LMS patients by PDGFRβ tumor status; assay type: in vivo, human; conditions: for OS HR: LMS female patients; for Hazard Ratio, overall survival / Hazard Ratio (95% CI), overall survival: Olaratumab + Doxorubicin vs Placebo + Doxorubicin; for OS HR adjusted for ECOG PS: adjusting for ECOG PS
[1] = tested on: advanced or metastatic soft tissue sarcoma; conditions: STS patients; for HR (95% CI), overall survival: Olaratumab + Doxorubicin vs Placebo + Doxorubicin
Method: Study Design: Patients with advanced or metastatic soft tissue sarcoma are treated with olaratumab (20 mg/kg loading dose on Days 1 and 8 of a 21-day cycle in Cycle 1, followed by 15 mg/kg on Days 1 and 8 in subsequent 21-day cycle) in combination with doxorubicin (75 mg/m^2 on Day 1) (“investigational cohort”) and compared to patients treated with placebo (on Days 1 and 8) plus doxorubicin (75 mg/m^2 on Day 1) (“control cohort”). Patients are treated for 8 cycles, followed by olaratumab monotherapy or placebo until evidence of progressive disease, unacceptable toxicity or death. […] Patients are assessed for median overall survival (OS).
Immunohistochemistry Assay to determine PDGFR/3 expression: For immunohistochemistry analysis, tumor tissue from patients is collected, formalin-fixed in 10% neutral buffered formalin, and paraffin-embedded (FFPE). PDGFRβ protein expression on tumor cells is assessed by immunohistochemistry. Briefly, from FFPE tissue blocks containing the patient tumor tissue, a 4-6 micrometer section is obtained and placed on a positively charged glass slide. Anti-PDGFRβ mouse monoclonal antibody 2B3 is used to detect expression of PDGFRβ (clone 2B3, Cell Signaling Technology® catalog number 3175S), diluted in Dako Primary Antibody Diluent with Background Reducing Components (Dako/Agilent catalog number S3022) at 0.25 μm/mL. Immunohistochemistry is performed on a Dako Autostainer Link 48/PT Link Incubator. Deparaffinization with the Link 48/PT Link Incubator is accomplished at 97° C. for 20 minutes. Target retrieval is next accomplished with immersion of the unstained slides into EnVision™ FLEX Target Retrieval Solution High pH (Dako) on the Dako Link48/PT Link Incubator. Following a rinse in RT EnVision™ FLEX Wash Buffer (1×), specific immunohistochemical staining with the 2B3 antibody is accomplished by FLEX Peroxidase Block for 5 minutes, application of the 0.25 ug/mL concentration of anti-human PDGFRβ antibody 2B3 with incubation for 60 minutes, followed by FLEX/HRP application and incubation for 20 minutes, then application of FLEX DAB+ Substrate Chromogen for 10 minutes, and finally FLEX hematoxylin for 5 minutes. Ready-to-use FLEX Mouse Negative Control (Dako/Agilent catalog number IR750) is performed alongside PDGFRβ staining and used as a quality control (negative control) for the assay. Stained slides are then evaluated by trained personnel using a brightfield microscope.

soft tissue sarcoma = conditions: clinical trials for treating soft tissue sarcoma; cited from earlier work
[2] = LMS patients excluding PDGFRβ positive females
[3] = LMS patients, PDGFRβ negative tumor status
[4] = LMS patients, PDGFRβ positive tumor status
[5] = PDGFRβ negative and PDGFRα positive tumor status

doxorubicin [Placebo + Doxorubicin, reference compound]
Median OS months (LMS; [2]): 20.9 months
Median OS months (LMS; [3]): 21.88 (16.72, 35.55) months
Median OS months (LMS; LMS patients, PDGFRβ negative tumor status, listed as control cohort): 21.88 months
Median OS months (LMS; [4]): 21.39 (15.57, 24.57) months
Median OS months (LMS; LMS patients, PDGFRβ positive tumor status, listed as control cohort): 21.39 months
median OS ([1]; PDGFRα negative tumor status): 21.9 months
median OS ([1]; PDGFRα positive tumor status): 19.1 months
median OS [1, 5]: 20.6 months
Median OS months ([1]; PDGFRβ negative tumor status): 20.57 months
Median OS months ([1]; PDGFRβ positive tumor status): 19.88 months
Median OS months ([1]; PDGFRβ positive tumor status, listed as control cohort): 19.9 months

Olaratumab + Doxorubicin: olaratumab (antibody that binds human PDGFRα) in combination with doxorubicin, followed by olaratumab monotherapy
OS HR (LMS; PDGFRβ negative tumor status): 0.55
OS HR (LMS; PDGFRβ positive tumor status): 1.34
Median OS months (LMS; [2]): 28.5 months
Hazard Ratio, overall survival (LMS; [2]): 0.60; p = 0.035
Hazard Ratio, overall survival (LMS; LMS patients excluding PDGFRβ positive females, listed as investigational cohort): 0.60
Median OS months (LMS; [3]): 29.11 months
Hazard Ratio (95% CI), overall survival (LMS; LMS patients, PDGFRβ negative): 0.65 (0.33, 1.25)
Hazard Ratio (95% CI), overall survival (LMS; LMS patients, PDGFRβ negative, listed as investigational cohort): 0.65
Median OS months (LMS; [4]): 20.14 months
Hazard Ratio (95% CI), overall survival (LMS; LMS patients, PDGFRβ positive): 1.05 ((0.71, 1.55)
Hazard Ratio (95% CI), overall survival (LMS; LMS patients, PDGFRβ positive, listed as investigational cohort): 1.05
OS HR adjusted for ECOG PS (LMS; PDGFRβ negative women with LMS): 0.55
OS HR adjusted for ECOG PS (LMS; PDGFRβ positive women with LMS): 1.34
median OS ([1]; PDGFRα negative tumor status): 23.6 months
median OS ([1]; PDGFRα positive tumor status): 17.2 months
median OS [1, 5]: 28.5 months
Median OS months ([1]; PDGFRβ negative tumor status): 28.32 months
HR (95% CI), overall survival ([1]; PDGFRβ negative): 0.85 (0.54-1.33)
HR (95% CI), overall survival ([1]; PDGFRβ negative, listed as investigational cohort): 0.85
Median OS months ([1]; PDGFRβ positive tumor status): 18.79 months
Median OS months ([1]; PDGFRβ positive tumor status, listed as investigational cohort): 18.8 months
HR (95% CI), overall survival ([1]; PDGFRβ positive): 1.10 (0.84-1.44)

LARTRUVO®: an antibody that specifically binds human PDGFRα
therapeutic endpoints in clinical trials (soft tissue sarcoma): failed to meet certain therapeutic endpoints
